From US10577373B2, “TYK2 inhibitors and uses thereof” (Nimbus Lakshmi, Inc., priority 2017, dated 2020)
Like-named read-outs stand apart in the source and are kept apart here.

Legend:
[1] = biological target: JAK2 kinase domain (JH1) (Homo sapiens (Human), UniProt O60674); experiment: JAK2 Radioactive Kinase Assay; format: biochemical; conditions: ATP 10 μM
Description: (§1) The Tyk2 and JAK2 radioactive kinase assay measures the percent inhibition at the Tyk2 kinase domain (JH1) and the percent inhibition at the JAK2 kinase domain (JH1). Results of the assay are expressed as percent inhibition at 10 μM.

[2] = biological target: human TYK2 (JH2 domain-pseudokinase) (Homo sapiens (Human), UniProt P29597); experiment: TYK2 JH2 Domain Binding Assay (KINOMEscan)
Sequence of human TYK2 (JH2 domain-pseudokinase) (P29597 556-888): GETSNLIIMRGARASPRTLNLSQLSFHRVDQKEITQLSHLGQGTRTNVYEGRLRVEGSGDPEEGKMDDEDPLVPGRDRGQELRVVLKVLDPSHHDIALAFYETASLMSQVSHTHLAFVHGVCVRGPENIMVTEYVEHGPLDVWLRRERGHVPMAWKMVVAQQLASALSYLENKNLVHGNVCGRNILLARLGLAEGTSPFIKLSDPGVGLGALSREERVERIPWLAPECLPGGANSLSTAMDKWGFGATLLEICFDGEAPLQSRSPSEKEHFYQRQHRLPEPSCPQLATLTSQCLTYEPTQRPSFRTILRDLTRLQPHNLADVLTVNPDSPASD
Description: Binding constants for compounds of the present invention against the JH2 domain were determined by the following protocol for a KINOMEscan® assay (DiscoveRx). A fusion protein of a partial length construct of human TYK2 (JH2 domain-pseudokinase) (amino acids G556 to D888 based on reference sequence NP_003322.3) and the DNA binding domain of NFkB was expressed in transiently transfected HEK293 cells. From these HEK 293 cells, extracts were prepared in M-PER extraction buffer (Pierce) in the presence of Protease Inhibitor Cocktail Complete (Roche) and Phosphatase Inhibitor Cocktail Set II (Merck) per manufacturers' instructions. The TYK2 (JH2 domain-pseudokinase) fusion protein was labeled with a chimeric double-stranded DNA tag containing the NFkB binding site (5′-[…]-3′) fused to an amplicon for qPCR readout, which was added directly to the expression extract (the final concentration of DNA-tag in the binding reaction is 0.1 nM).
The liganded beads were blocked with excess biotin and washed with blocking buffer (SeaBlock (Pierce), 1% BSA, 0.05% Tween 20, 1 mM DTT) to remove unbound ligand and to reduce nonspecific binding.
Extracts were used directly in binding assays without any enzyme purification steps at a ≥10,000-fold overall stock dilution (final DNA-tagged enzyme concentration<0.1 nM). Extracts were loaded with DNA-tag and diluted into the binding reaction in a two step process. First extracts were diluted 1:100 in 1× binding buffer (PBS/0.05% Tween 20/10 mM DTT/0.1% BSA/2 μg/ml sonicated salmon sperm DNA) containing 10 nM DNA-tag. This dilution was allowed to equilibrate at room temperature for 15 minutes and then subsequently diluted 1:100 in 1× binding buffer. […] Kds were determined using an 11-point 3-fold compound dilution series with three DMSO control points. […] The compounds were then diluted directly into the assays such that the final concentration of DMSO was 0.9%. All reactions performed in polypropylene 384-well plates. Each was a final volume of 0.02 mL. Assays were incubated with shaking for 1 hour at room temperature. Then the beads were pelleted and washed with wash buffer (lx PBS, 0.05% Tween 20) to remove displaced kinase and test compound. […] The qPCR protocol consisted of a 10 minute hot start at 95° C., followed by 35 cycles of 95° C. for 15 seconds, 60° C. for 1 minute.
Kds were determined using an 11-point 3-fold compound dilution series with three DMSO control points. […] The compounds were then diluted directly into the assays such that the final concentration of DMSO was 0.9%. The Kds were determined using a compound top concentration of 30,000 nM. Kd measurements were performed in duplicate.
Binding constants (Kds) were calculated with a standard dose-response curve using the Hill equation: […]
The Hill Slope was set to −1.

[3] = biological target: Tyk2 kinase domain (JH1) (Homo sapiens (Human), UniProt P29597); experiment: Tyk2 Radioactive Kinase Assay; format: biochemical; conditions: ATP 10 μM
Sequence of Tyk2 kinase domain (JH1) (P29597 897-1176): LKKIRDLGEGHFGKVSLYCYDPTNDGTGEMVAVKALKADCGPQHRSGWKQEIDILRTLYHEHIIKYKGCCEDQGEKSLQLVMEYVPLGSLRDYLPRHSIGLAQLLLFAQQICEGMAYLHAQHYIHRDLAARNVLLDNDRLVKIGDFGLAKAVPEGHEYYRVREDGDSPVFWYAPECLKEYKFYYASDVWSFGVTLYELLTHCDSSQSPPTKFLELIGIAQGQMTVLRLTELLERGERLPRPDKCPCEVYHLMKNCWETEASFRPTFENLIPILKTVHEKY
Description: as §1

[4] = tested on: GM-CSF induced STAT5 phosphorylation mediated by the JAK2/JAK2 homdimeric complex; experiment: GM-CSF Induced pSTAT5 in Human PBMC; conditions: GM-CSF 5 ng/mL for 20 minutes, pSTAT5
Description: Human PBMC are isolated from buffy coat and are stored frozen for assays as needed.

[5] = tested on: IL-12 induced STAT4 phophorylation mediated by Tyk2/JAK2 (heterodimeric complex); experiment: IL-12 Induced pSTAT4 in Human PBMC; format: cell-based; conditions: 1.7 ng/mL IL-12
Text: The IL-12 Induced pSTAT4 assay evaluates the inhibition of IL-12 induced STAT4 phophorylation mediated by Tyk2/JAK2 (heterodimeric complex).

[6] = Homo sapiens, PBMC, 20 min, read-out: PBMC_GMCSF_pSTAT5 IC50, human PBMC

Sequence of JAK2 kinase domain (JH1) (O60674 849-1124): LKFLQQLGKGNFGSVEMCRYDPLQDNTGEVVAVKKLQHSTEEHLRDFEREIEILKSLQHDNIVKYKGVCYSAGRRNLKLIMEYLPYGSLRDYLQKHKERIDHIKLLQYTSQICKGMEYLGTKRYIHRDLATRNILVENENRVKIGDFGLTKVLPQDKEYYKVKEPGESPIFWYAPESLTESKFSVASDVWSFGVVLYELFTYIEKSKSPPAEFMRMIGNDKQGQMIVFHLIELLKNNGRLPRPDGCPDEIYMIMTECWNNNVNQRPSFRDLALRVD

Kd [2] [nM] | IC50 [5] [nM] | SMILES | other results
< 0.2 |  | CNc1cc(Nc2cccn(-c3cnc(C(=O)N(C)C)cn3)c2=O)nc2c(C(N)=O)cnn12 [I-53, 5-((1-(5-(dimethylcarbamoyl)pyrazin-2-yl)-2-oxo-1,2-dihydropyridin-3-yl)amino)-7-(methylamino)pyrazolo[1,5-a]pyrimidine-3-carboxamide] | inhibition at 10 µM ([1]; 10 μM compound): < 50%; inhibition at 10 µM ([3]; 10 μM compound): < 50%
< 0.2 |  | [2H]C([2H])([2H])Oc1ncccc1Nc1cc(NC)n2ncc(C(=O)N[C@H]3[C@@H]4COC[C@@H]43)c2n1 [I-447] | 
< 0.2 | < 100 | CNc1cc(Nc2cc(Cl)cn(C3CCOCC3)c2=O)nc2c(C(=O)NCC(C)(C)CO)cnn12 [I-694] | IC50 [4, 6]: > 50000 nM; inhibition at 10 µM ([1]; compound at 10 μM): < 50%; inhibition at 10 µM ([3]; compound at 10 μM): < 50%
< 0.2 | < 100 | CNc1cc(Nc2cccn([C@H]3CCCC[C@H]3O)c2=O)nc2c(C(=O)N[C@@H]3C[C@@H]3F)cnn12 [I-988, N-((1R,2S)-2-fluorocyclopropyl)-5-((1-((1S,2R)-2-hydroxycyclohexyl)-2-oxo-1,2-dihydropyridin-3-yl)amino)-7-(methylamino)pyrazolo[1,5-a]pyrimidine-3-carboxamide] | IC50 [4, 6]: > 50000 nM; inhibition at 10 µM ([1]; 10 μM compound): < 50%; inhibition at 10 µM ([3]; 10 μM compound): < 50%
 | < 100 | CNc1cc(Nc2cccn([C@@H]3CCC[C@H](OC)C3)c2=O)nc2c(C(=O)N[C@@H]3CC[C@H]3OC)cnn12 [I-995] | IC50 [4, 6]: > 50000 nM
 | < 100 | CNc1cc(Nc2cccn(C3CCCCC3)c2=O)nc2c(C(=O)N[C@@H]3CC[C@@H]3O)cnn12 [I-1000] | IC50 [4, 6]: > 50000 nM
 | < 100 | CNc1cc(Nc2cccn(C3CCCCC3)c2=O)nc2c(C(=O)N[C@@H]3CC[C@H]3O)cnn12 [I-1002] | IC50 ([4]; read-out: PBMC_GMCSF_pSTAT5 IC50, human PBMC): > 50000 nM
0.2 to 1 |  | CNc1cc(Nc2cccn(-c3ccccn3)c2=O)nc2c(C(=O)N[C@@H]3CC[C@H]3COC)cnn12 [I-1232] | 
< 0.2 |  | CNc1cc(Nc2cccn(C(C)C)c2=O)cc2c(C(=O)N[C@H]3CC[C@@]3(C)O)cnn12 [I-1371] | 

Second part, the compound before the results:

SMILES | Kd [2] [nM] | IC50 [5] [nM] | other results
CNc1cc(Nc2cccn(-c3cccc(C)n3)c2=O)nc2c(C(=O)NC3CC3)cnn12 [I-237] |  |  | JAK2 JH1% Inhibition @ 10 μM ([1]; 10 μM compound): A (percent inhibition at 10 μM lower than 50); Tyk2 JH1% Inhibition @ 10 μM ([3]; 10 μM compound): A (percent inhibition at 10 μM lower than 50)
CNc1cc(Nc2cccnc2OC2CC2)nc2c(C(=O)NC3CC4(COC4)C3)cnn12 [I-433] |  |  | inhibition at 10 µM ([1]; compound at 10 μM): 50 to 70%; inhibition at 10 µM ([3]; compound at 10 μM): < 50%
CNc1cc(Nc2cc(F)cn(C3CCOCC3)c2=O)nc2c(C(=O)NCC(C)(C)CO)cnn12 [I-529] |  |  | inhibition at 10 µM ([1]; compound at 10 μM): < 50%; inhibition at 10 µM ([3]; compound at 10 μM): < 50%
CNc1cc(Nc2cccc([C@@H]3CCCOC3)n2)nc2c(C(=O)N[C@H]3CC[C@H]3O)cnn12 [I-645] | 1 to 10 |  | 
CNc1cc(Nc2cccc(N3CCOC4(CCOC4)C3)n2)nc2c(C(=O)NC3CC3)cnn12 (centres unmarked) [I-744] |  |  | inhibition at 10 µM ([1]; compound at 10 μM): < 50%; inhibition at 10 µM ([3]; compound at 10 μM): < 50%
CNc1cc(-c2cn(C3CC3)c3ncccc23)nc2c(C(=O)N[C@@H]3CC[C@H]3OC)cnn12 [I-1324] | < 0.2 |  | 
CNc1cc(-c2cn([C@H]3CCN(CCF)C3)c3cnccc23)nc2c(C(=O)N[C@@H]3C[C@@H]3F)cnn12 [I-1362] | 0.2 to 1 | < 100 | 
CNc1cc(-c2cn([C@H]3CCN(CCF)C3)c3cnccc23)nc2c(C(=O)NC3CC3)cnn12 [I-1363] | 0.2 to 1 |  | 
CNc1cc(C2=CN(C(C)C)C3N=CC(F)=CC23)nc2c(C(=O)N[C@@H]3CC[C@@H]3O)cnn12 (some centres unmarked) [I-1386] | 1 to 10 |  | 
CNc1cc(C2=CN(C(C)C)C3N=CC(F)=CC23)nc2c(C(=O)N[C@H]3CC[C@H]3O)cnn12 (some centres unmarked) [I-1387] | 1 to 10 | < 100 | 
